In the NIST ThermoML archive (doi:10.1016/j.jct.2017.08.004):
Numbers after ± are expanded uncertainties.

conditions: 65 K; 101.33 kPa; Crystal; relaxation calorimetry

| molar entropy [J/K/mol] | SMILES |
| --- | --- |
| 31.16 ± 2.9 | OC[C@@H](O)C(O)[C@H](O)CO [D-arabitol] |
| 31.48 ± 2.9 | OC[C@H](O)C(O)[C@@H](O)CO [L-(-)-arabitol] |

Further lines, the compound ahead of its results:

| SMILES | molar entropy [J/K/mol] |
| --- | --- |
| OC[C@@H](O)[C@@H](O)[C@H](O)[C@H](O)CO [D-mannitol] | 35.57 ± 3.3 |
| O[C@H]1[C@H](O)[C@@H](O)[C@H](O)[C@@H](O)[C@H]1O [cis-1,2,3,5-trans-4,6-cyclohexanehexol] | 29.66 ± 2.7 |
| OC[C@@H](O)[C@@H](O)CO [meso-1,2,3,4-butanetetrol] | 27.37 ± 2.5 |

same assay, conditions: 70 K; 101.33 kPa; Crystal; relaxation calorimetry

| molar entropy [J/K/mol] | SMILES |
| --- | --- |
| 35.01 ± 3.2 | OC[C@@H](O)C(O)[C@H](O)CO [D-arabitol] |
| 35.36 ± 3.2 | OC[C@H](O)C(O)[C@@H](O)CO [L-(-)-arabitol] |

Further lines, the compound ahead of its results:

| SMILES | molar entropy [J/K/mol] |
| --- | --- |
| OC[C@@H](O)[C@@H](O)[C@H](O)[C@H](O)CO [D-mannitol] | 39.94 ± 3.7 |
| O[C@H]1[C@H](O)[C@@H](O)[C@H](O)[C@@H](O)[C@H]1O [cis-1,2,3,5-trans-4,6-cyclohexanehexol] | 33 ± 3 |
| OC[C@@H](O)[C@@H](O)CO [meso-1,2,3,4-butanetetrol] | 30.57 ± 2.8 |

same assay, conditions: 75 K; 101.33 kPa; Crystal; relaxation calorimetry

| molar entropy [J/K/mol] | SMILES |
| --- | --- |
| 38.9 ± 3.6 | OC[C@@H](O)C(O)[C@H](O)CO [D-arabitol] |
| 39.27 ± 3.6 | OC[C@H](O)C(O)[C@@H](O)CO [L-(-)-arabitol] |

Second part, the compound before the results:

| SMILES | molar entropy [J/K/mol] |
| --- | --- |
| OC[C@@H](O)[C@@H](O)[C@H](O)[C@H](O)CO [D-mannitol] | 44.34 ± 4.1 |
| O[C@H]1[C@H](O)[C@@H](O)[C@H](O)[C@@H](O)[C@H]1O [cis-1,2,3,5-trans-4,6-cyclohexanehexol] | 36.38 ± 3.3 |
| OC[C@@H](O)[C@@H](O)CO [meso-1,2,3,4-butanetetrol] | 33.79 ± 3.1 |

same assay, conditions: 80 K; 101.33 kPa; Crystal; relaxation calorimetry

| molar entropy [J/K/mol] | SMILES |
| --- | --- |
| 42.79 ± 3.9 | OC[C@@H](O)C(O)[C@H](O)CO [D-arabitol] |
| 43.19 ± 4 | OC[C@H](O)C(O)[C@@H](O)CO [L-(-)-arabitol] |

The next lines start with the compound.

| SMILES | molar entropy [J/K/mol] |
| --- | --- |
| OC[C@@H](O)[C@@H](O)[C@H](O)[C@H](O)CO [D-mannitol] | 48.76 ± 4.5 |
| O[C@H]1[C@H](O)[C@@H](O)[C@H](O)[C@@H](O)[C@H]1O [cis-1,2,3,5-trans-4,6-cyclohexanehexol] | 39.8 ± 3.7 |
| OC[C@@H](O)[C@@H](O)CO [meso-1,2,3,4-butanetetrol] | 37.01 ± 3.4 |

same assay, conditions: 85 K; 101.33 kPa; Crystal; relaxation calorimetry

| molar entropy [J/K/mol] | SMILES |
| --- | --- |
| 46.7 ± 4.3 | OC[C@@H](O)C(O)[C@H](O)CO [D-arabitol] |
| 47.12 ± 4.3 | OC[C@H](O)C(O)[C@@H](O)CO [L-(-)-arabitol] |

More lines, now with the values behind:

| SMILES | molar entropy [J/K/mol] |
| --- | --- |
| OC[C@@H](O)[C@@H](O)[C@H](O)[C@H](O)CO [D-mannitol] | 53.19 ± 4.9 |
| O[C@H]1[C@H](O)[C@@H](O)[C@H](O)[C@@H](O)[C@H]1O [cis-1,2,3,5-trans-4,6-cyclohexanehexol] | 43.26 ± 4 |
| OC[C@@H](O)[C@@H](O)CO [meso-1,2,3,4-butanetetrol] | 40.23 ± 3.7 |

same assay, conditions: 90 K; 101.33 kPa; Crystal; relaxation calorimetry

| molar entropy [J/K/mol] | SMILES |
| --- | --- |
| 50.61 ± 4.6 | OC[C@@H](O)C(O)[C@H](O)CO [D-arabitol] |
| 51.04 ± 4.7 | OC[C@H](O)C(O)[C@@H](O)CO [L-(-)-arabitol] |

Continued, compound first:

| SMILES | molar entropy [J/K/mol] |
| --- | --- |
| OC[C@@H](O)[C@@H](O)[C@H](O)[C@H](O)CO [D-mannitol] | 57.61 ± 5.3 |
| O[C@H]1[C@H](O)[C@@H](O)[C@H](O)[C@@H](O)[C@H]1O [cis-1,2,3,5-trans-4,6-cyclohexanehexol] | 46.76 ± 4.3 |
| OC[C@@H](O)[C@@H](O)CO [meso-1,2,3,4-butanetetrol] | 43.44 ± 4 |

same assay, conditions: 95 K; 101.33 kPa; Crystal; relaxation calorimetry

| molar entropy [J/K/mol] | SMILES |
| --- | --- |
| 54.52 ± 5 | OC[C@@H](O)C(O)[C@H](O)CO [D-arabitol] |
| 54.97 ± 5 | OC[C@H](O)C(O)[C@@H](O)CO [L-(-)-arabitol] |

The next lines start with the compound.

| SMILES | molar entropy [J/K/mol] |
| --- | --- |
| OC[C@@H](O)[C@@H](O)[C@H](O)[C@H](O)CO [D-mannitol] | 62.02 ± 5.7 |
| O[C@H]1[C@H](O)[C@@H](O)[C@H](O)[C@@H](O)[C@H]1O [cis-1,2,3,5-trans-4,6-cyclohexanehexol] | 50.29 ± 4.6 |
| OC[C@@H](O)[C@@H](O)CO [meso-1,2,3,4-butanetetrol] | 46.65 ± 4.3 |

same assay, conditions: 100 K; 101.33 kPa; Crystal; relaxation calorimetry

| molar entropy [J/K/mol] | SMILES |
| --- | --- |
| 58.42 ± 5.4 | OC[C@@H](O)C(O)[C@H](O)CO [D-arabitol] |
| 58.89 ± 5.4 | OC[C@H](O)C(O)[C@@H](O)CO [L-(-)-arabitol] |

Continued, compound first:

| SMILES | molar entropy [J/K/mol] |
| --- | --- |
| OC[C@@H](O)[C@@H](O)[C@H](O)[C@H](O)CO [D-mannitol] | 66.42 ± 6.1 |
| O[C@H]1[C@H](O)[C@@H](O)[C@H](O)[C@@H](O)[C@H]1O [cis-1,2,3,5-trans-4,6-cyclohexanehexol] | 53.84 ± 4.9 |
| OC[C@@H](O)[C@@H](O)CO [meso-1,2,3,4-butanetetrol] | 49.83 ± 4.6 |

same assay, conditions: 110 K; 101.33 kPa; Crystal; relaxation calorimetry

| molar entropy [J/K/mol] | SMILES |
| --- | --- |
| 66.18 ± 6.1 | OC[C@@H](O)C(O)[C@H](O)CO [D-arabitol] |
| 66.69 ± 6.1 | OC[C@H](O)C(O)[C@@H](O)CO [L-(-)-arabitol] |

The remaining lines, values behind:

| SMILES | molar entropy [J/K/mol] |
| --- | --- |
| OC[C@@H](O)[C@@H](O)[C@H](O)[C@H](O)CO [D-mannitol] | 75.17 ± 6.9 |
| O[C@H]1[C@H](O)[C@@H](O)[C@H](O)[C@@H](O)[C@H]1O [cis-1,2,3,5-trans-4,6-cyclohexanehexol] | 61.01 ± 5.6 |
| OC[C@@H](O)[C@@H](O)CO [meso-1,2,3,4-butanetetrol] | 56.17 ± 5.2 |

same assay, conditions: 120 K; 101.33 kPa; Crystal; relaxation calorimetry

| molar entropy [J/K/mol] | SMILES |
| --- | --- |
| 73.87 ± 6.8 | OC[C@@H](O)C(O)[C@H](O)CO [D-arabitol] |
| 74.44 ± 6.8 | OC[C@H](O)C(O)[C@@H](O)CO [L-(-)-arabitol] |

Continued, compound first:

| SMILES | molar entropy [J/K/mol] |
| --- | --- |
| OC[C@@H](O)[C@@H](O)[C@H](O)[C@H](O)CO [D-mannitol] | 83.84 ± 7.7 |
| O[C@H]1[C@H](O)[C@@H](O)[C@H](O)[C@@H](O)[C@H]1O [cis-1,2,3,5-trans-4,6-cyclohexanehexol] | 68.23 ± 6.3 |
| OC[C@@H](O)[C@@H](O)CO [meso-1,2,3,4-butanetetrol] | 62.43 ± 5.7 |
